Consider three molecules from patent US20040219102A1, “Compositions for drug delivery” (priority 2003, published 2004).

Test [1] relates to JJ5 Breast Cancer cells. The conditions noted are these: cultured 4 days.
Procedure: The number of cells seeded was varied from 3×10^4 to 3×10^6 cells to obtain approximately 350 viable colonies/dish taking into account the plating efficiency and the expected level of cytotoxicity. Control dishes contained JJ5 breast cancer cells which were incubated with normal saline. Growth medium was added and the cells were cultured at 37° C./5% CO2 for 4 days. The growth medium was removed and the colonies were stained with methylene blue (1% in a 1:1 mixture of ethanol and water) then washed twice. The number of colonies per dish was counted using a manual colony counter (Manostat Corp). The plating efficiency was calculated by dividing the number of colonies observed by the number of cells seeded in each dish.
For test [2], the system named is JJ5 Breast Cancer cells. The test can be described thus: Growth inhibition assay of EGF-111In-labeled transferrin composition against JJ5 breast cancer cells. The conditions noted are these: cultured 4 days. It counts as cell-based, human. The method, then: JJ5 breast cancer cells (prepared from BCBM JJ5) expressing approximately 10^6 epidermal growth factor receptors/cell were incubated with EGF-^111In-labeled transferrin composition, unlabeled hEGF or ^111In-oxine, centrifuged to remove free ligand, then assayed and seeded (10^6 cells/dish) into 35 mm culture dishes.

Test [3] deals with JJ5 Breast Cancer cells. In words: Cytotoxicity (colony-forming) assay of EGF-111In-labeled transferrin composition against JJ5 breast cancer cells. The class given is cell-based, human. The conditions noted are these: 14 days. The method, then:
JJ5 breast cancer cells were incubated with increasing amounts EGF-^111In-labeled transferrin composition or ^111In-oxine, centrifuged to remove free ligand, assayed and then seeded into 50 mm culture dishes. […] The growth medium was removed and the colonies were stained with methylene blue (1% in a 1:1 mixture of ethanol and water) then washed twice.
Using a colony-forming assay, the radiotoxicity of internalization for JJ5 breast cancer cells was evaluated.

For test [4], the system named is JJ5 Breast Cancer cells. The test can be described thus: Binding of EGF-111In-labeled transferrin composition to breast cancer cells. Also on record: species or system human. From the text: For the normal breast cell line HBL-100, 8000 EGFR/cell has been reported. The expression of EGFR in breast cancer cell lines has a reported range of 800 EGFR/cell for MCF-7 cells to 10^6 EGFR/cell for MDA-MB-468 cells. […] Utilizing the Auger electron emitter ^111In was used in the initial experiments to illustrate the utility of the invention using EGF-^111In-labeled transferrin compositions. […] The cells were transferred to a centrifuge tube and centrifuged. The cell pellet was separated from the supernatant and counted in a g-scintillation counter to determine bound (B) and free (F) radioactivity. Non-specific binding was determined by conducting the assay in 100 nM hEGF. […] Internalized fraction was measured by determining the proportion of radioactivity which could not be displaced from the cell surface by 100 nM hEGF. Cell-associated binding (surface-binding and intracellular accumulation) was expressed as a percentage of medium radioactivity bound per mg of cell study protein. […] EGF-^111In-labeled transferrin composition was rapidly bound by the breast cancer cells and retained for at least 24 hours. Over a 24 hour period at 37° C., <8% was lost from the cells in vitro.

Like-named read-outs stand apart in the source and are kept apart here. Bounds are passed on as bounds.

Turning to `COc1cccc2c1C(=O)c1c(O)c3c(c(O)c1C2=O)C[C@@](O)(C(=O)CO)C[C@@H]3O[C@H]1C[C@H](N)[C@H](O)[C@H](C)O1` [Doxorubicin], the “growth inhibition of the JJ5 cells compared to the medium control” value in test [1] stood at 95%.
For the molecule `[In+3].[O-]c1cccc2cccnc12.[O-]c1cccc2cccnc12.[O-]c1cccc2cccnc12` [^111In-oxine, reference compound], the “growth inhibition of the JJ5 cells compared to the medium control” value in test [2] (3.5 pCi/cell) is 91%. The cell killing result in test [3] (at <6 pCi/cell) is recorded as “greater than 99%”.
Turning to “EGF-^111In-labeled transferrin composition”, in test [2] (3.4 pCi/cell), the “growth inhibition of the JJ5 cells compared to the medium control” value is 83%. Also, the “time retained by the breast cancer cells” value in test [4] (37° C.) is on record as “at least 24 hours”. The “affinity constant for binding to JJ5 cells” value in test [4] (37° C., 30 minutes, non-specific binding in 100 nM hEGF) stood at 8e+08 L/mol. For the same molecule, the “number of binding sites” value in test [4] (JJ5 cells) is 2.7×10^6. Also, the “111In radioactivity lost from the cells in vitro” value in test [4] (over a 24 hour period at 37° C.) was < 8%. Further, in test [3] (8 pCi/cell), the “reduction in cell survival” value stood at 99%.
